Among the test systems are U251 CNS; A498 renal; MDA-MB-231 breast; OVCAR-8 ovarian; UO-31 renal; KM12 colon; SNB-75 CNS; COLO 205 colon; MCF7 breast; NCI/ADR-RES ovarian.
What all share (test): NCI anticancer screen, dose series, 48 h

Molecules are shown by their SMILES. Several values for one entry are separate records, joined by “and”; a condition that tells them apart may be missing. Equal values may be shown once.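 Dose response: 5 concentrations. Exposure: 48 h. Format: 96-well plates. Endpoint: linear interpolation; highest concentration if not reached. GI50 = concentration required for 50% inhibition of growth. TGI denotes the concentration required for complete inhibition of growth.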

As to `COc1ccc(N=C(SSC(=Nc2ccc(OC)cc2)c2ccc([N+](=O)[O-])o2)c2ccc([N+](=O)[O-])o2)cc1`, the TGI in the assay with U251 CNS stood at 1.62 µM; with A498 renal, 25.8 µM; with MDA-MB-231 breast, 7.33 µM; in the assay on OVCAR-8 ovarian, 7.71 µM; in the assay on UO-31 renal it was 3.01 µM; in the assay on KM12 colon, 2.79 µM. In the assay on SNB-75 CNS, this compound returned a TGI of 2.9 µM.
On to `O=C(Cn1c(-c2ccccc2)cc2ccccc21)N1CCOCC1`, for which the TGI in the assay with U251 CNS, in the assay with COLO 205 colon, in the assay with A498 renal, with MDA-MB-231 breast, in the assay on MCF7 breast and in the assay with OVCAR-8 ovarian was above 100 µM throughout. In addition, the TGI with UO-31 renal, in the assay on KM12 colon and with NCI/ADR-RES ovarian was above 100 µM each time.
Regarding `N/N=C(\N)SCc1ccc(N=C=S)cc1`, the TGI in the assay with U251 CNS, with COLO 205 colon, in the assay on A498 renal, in the assay on MDA-MB-231 breast, with OVCAR-8 ovarian and with UO-31 renal was above 100 µM in each case. Also, the TGI in the assay with KM12 colon, in the assay on NCI/ADR-RES ovarian and in the assay on SNB-75 CNS was above 100 µM each time.
For `O=C(Nc1nc2ccc([N+](=O)[O-])cc2s1)c1cc([N+](=O)[O-])ccc1Cl`, the TGI was determined as 12.1 µM in the assay with U251 CNS; 3.65 µM in the assay with COLO 205 colon; 7.42 µM with A498 renal; 21.3 µM in the assay with MDA-MB-231 breast; 9.57 µM with OVCAR-8 ovarian; 50.5 µM in the assay with KM12 colon. Moreover, the results for the TGI with NCI/ADR-RES ovarian and in the assay on SNB-75 CNS were 8.23 µM and 9.61 µM, respectively.
Turning to `NS(=O)(=O)c1cc2c(cc1Cl)NC(C(=O)NNC(=O)c1ccncc1)=NS2(=O)=O`, the TGI in the assay with COLO 205 colon, in the assay on OVCAR-8 ovarian, with UO-31 renal, in the assay on KM12 colon and with SNB-75 CNS was above 100 µM throughout.
For the compound `COC(=O)c1ccccc1NCc1cc(O)ccc1O`, the TGI in the assay with U251 CNS was 40.1 µM; with COLO 205 colon, 34 µM; in the assay with A498 renal, above 89.2 µM; with MCF7 breast, 38 µM; in the assay on OVCAR-8 ovarian it was 34.5 µM; in the assay on UO-31 renal, 31.9 µM. Also, the TGI was 53.2 µM in the assay with KM12 colon, 62.5 µM in the assay with NCI/ADR-RES ovarian and above 75.9 µM in the assay on SNB-75 CNS.
`O=C(c1ccccc1)n1c2ccc(Br)cc2c2nc3ccccc3nc21`: the TGI in the assay on U251 CNS, in the assay on COLO 205 colon, in the assay on MDA-MB-231 breast, in the assay on MCF7 breast, in the assay with OVCAR-8 ovarian and in the assay on UO-31 renal was above 100 µM in each case. The TGI in the assay on KM12 colon, in the assay with NCI/ADR-RES ovarian and with SNB-75 CNS was above 100 µM each time.
Turning to `CCCCC(C)(C/C=C/[C@@H]1[C@@H](C(O)CCCCCC(=O)OC)C(=O)C[C@H]1O[Si](C)(C)C(C)(C)C)O[Si](C)(C)C` (some centres undefined), the TGI in the assay with U251 CNS, in the assay with COLO 205 colon, with MDA-MB-231 breast, with MCF7 breast, with OVCAR-8 ovarian and with UO-31 renal was above 100 µM throughout. The TGI in the assay on KM12 colon, in the assay on NCI/ADR-RES ovarian and with SNB-75 CNS was above 100 µM in each case.
Turning to `COc1ccc(Sc2ccccc2[N+](=O)[O-])cc1`, the TGI in the assay on U251 CNS was 41.3 µM; in the assay on COLO 205 colon it was 29.7 µM; in the assay on A498 renal it was above 100 µM; with OVCAR-8 ovarian, above 100 µM; in the assay on UO-31 renal it was above 100 µM; in the assay on KM12 colon it was above 100 µM. The compound further had a TGI with SNB-75 CNS of 19.7 µM.
Consider `COC1=C(C)C(=O)C2=C(C1=O)C1C3CC4=C(C(=O)C(OC)=C(C)C4=O)C(CNC(=O)C(C)=O)N3C(C#N)C(C2)N1C` (centres undefined), for which the GI50 with A498 renal is 0.0634 µM; with MCF7 breast, 0.0742 nM; with NCI/ADR-RES ovarian, 1.16 µM. Besides, the TGI was 0.0127 µM and 0.0154 µM in the assay on MDA-MB-231 breast; 0.359 µM and 0.379 µM in the assay with MCF7 breast; 0.0313 µM and 0.0726 µM in the assay with KM12 colon; 4.05 µM and 2.76 µM in the assay with NCI/ADR-RES ovarian.
For `CNc1nc(OC)c2c(n1)[n+](C)cn2C`, the TGI in the assay on U251 CNS, in the assay on COLO 205 colon, in the assay with A498 renal, in the assay on MDA-MB-231 breast, in the assay on OVCAR-8 ovarian and in the assay on UO-31 renal was above 100 µM throughout. Also, the TGI with KM12 colon, in the assay with NCI/ADR-RES ovarian and in the assay with SNB-75 CNS was above 100 µM each time.
On to `O=CC12CCCN1CCC2`, for which the TGI in the assay with U251 CNS, in the assay on COLO 205 colon, in the assay on MDA-MB-231 breast, in the assay on UO-31 renal and with NCI/ADR-RES ovarian was above 100 µM throughout.
For `CCCCCCCCCCCC1=C(O)C(=O)C=C(O)C1=O`, the TGI with U251 CNS was 22.1 µM; in the assay with COLO 205 colon, 27.9 µM; in the assay with A498 renal, 20.9 µM; in the assay on MCF7 breast, 42.2 µM; in the assay on OVCAR-8 ovarian it was 4.7 µM; with UO-31 renal, 14 µM. The TGI came out at 31.6 µM with KM12 colon, 16.4 µM with NCI/ADR-RES ovarian and 17.7 µM in the assay with SNB-75 CNS.
As for `CCOC(=O)N/N=C(/N)Cc1ccc(Cl)cc1`, the TGI in the assay with U251 CNS, in the assay on COLO 205 colon, with MDA-MB-231 breast, with MCF7 breast, in the assay with OVCAR-8 ovarian and with UO-31 renal was above 100 µM in each case. Moreover, the TGI with KM12 colon, in the assay with NCI/ADR-RES ovarian and in the assay on SNB-75 CNS was above 100 µM in each case.
Take `Clc1cc2ncn(C3CCCO3)c2cc1Cl` (centres undefined): the TGI was above 100 µM in the assay with U251 CNS; above 100 µM in the assay on COLO 205 colon; above 100 µM with MDA-MB-231 breast; above 100 µM in the assay with MCF7 breast; above 100 µM in the assay on OVCAR-8 ovarian; 53.6 µM in the assay on UO-31 renal. Moreover, the TGI in the assay with KM12 colon, with NCI/ADR-RES ovarian and in the assay on SNB-75 CNS was above 100 µM in each case.
Turning to `CC(=O)Oc1cc(OC(C)=O)c2c(c1C)CC[C@@H]1[C@@H]2CC[C@]2(C)[C@@H](OC(C)=O)CC[C@@H]12`, the TGI with U251 CNS came to 31.9 µM; in the assay on A498 renal it was 34.8 µM; in the assay with MDA-MB-231 breast, 30.5 µM; with MCF7 breast, 34.1 µM; with OVCAR-8 ovarian it was 42.4 µM; with UO-31 renal, 31.4 µM. Moreover, the figures for the TGI with KM12 colon, with NCI/ADR-RES ovarian and in the assay on SNB-75 CNS were 31.5 µM, 57.6 µM and 44 µM, respectively.

These data come from PubChem BioAssay (NCI).
